Reference: ChEMBL document CHEMBL1158422, “A library of novel allosteric inhibitors against fructose 1,6-bisphosphatase” (Bioorg Med Chem, 2009)
“And” between values parts separate entries of the source, which are not always exact repeats. Equal entries are not always repeated. The source made the active and inactive calls. The calls are words filed in the database; no cut-off is given here.

The molecules below were run against T1, Fructose-1,6-bisphosphatase 1 (Sus scrofa, UniProt P00636) (assay: Inhibition of pig FBPase expressed in Escherichia coli EK1601 by spectrophotometry). Conditions: not given.
T1 sequence (P00636 whole entry): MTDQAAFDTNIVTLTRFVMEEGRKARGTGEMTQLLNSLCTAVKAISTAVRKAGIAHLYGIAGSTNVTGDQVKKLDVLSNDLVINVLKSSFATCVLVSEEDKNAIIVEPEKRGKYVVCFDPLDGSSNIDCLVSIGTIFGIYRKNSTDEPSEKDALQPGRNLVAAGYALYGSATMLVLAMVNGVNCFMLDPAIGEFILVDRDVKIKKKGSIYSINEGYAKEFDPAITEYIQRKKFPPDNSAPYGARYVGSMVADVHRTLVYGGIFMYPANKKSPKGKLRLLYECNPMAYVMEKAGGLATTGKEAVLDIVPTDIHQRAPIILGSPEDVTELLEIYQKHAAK
For O=[N+]([O-])c1ccc(-c2csc(Nc3ccccc3)n2)cc1, the IC50 was “Not Active”.
With O=[N+]([O-])c1ccc(Nc2nc(-c3ccccc3)cs2)cc1 the IC50 was “Not Active”.

Same assay, conditions: read-out: IC50
With O=C(O)c1ccc(S(=O)(=O)c2ccc(C(=O)O)cc2)cc1 the IC50 was 750 µM.
Oc1ccc(Nc2nc(-c3ccc(O)cc3)cs2)cc1 gave an IC50 of 48 µM.
Work on NS(=O)(=O)c1cccc(Nc2nc(-c3ccc(O)cc3)cs2)c1 yielded an IC50 of 50 µM.
Oc1ccccc1-c1csc(Nc2ccccc2)n1 was tested, and the IC50 was 119 µM.
For Oc1ccc(-c2csc(Nc3ccccc3O)n2)cc1, the IC50 was 15 µM.
For Oc1cccc(Nc2nc(-c3ccc(O)cc3O)cs2)c1, the IC50 was 6 µM.
Work on c1ccc(Nc2nc(-c3ccccc3)cs2)cc1 yielded an IC50 of 2500 µM.
CCc1c(C)sc(NC(=S)NCc2ccccn2)c1C(=O)OC showed an IC50 of 20 µM.
For NS(=O)(=O)c1cccc(Nc2nc(-c3ccccc3)cs2)c1, the IC50 was 104 µM.
In the case of NS(=O)(=O)c1ccc(Nc2nc(-c3ccc(O)cc3)cs2)cc1, the IC50 is reported as 32 µM and 31.6 µM.
In the case of NS(=O)(=O)c1ccc(Nc2nc(-c3ccccc3)cs2)cc1, the IC50 is reported as 145 µM.
In the case of Oc1cccc(Nc2nc(-c3ccccc3)cs2)c1, the IC50 is reported as 35 µM.
With Nc1ncnc2c1ncn2[C@@H]1O[C@H](COP(=O)(O)O)[C@@H](O)[C@H]1O [ADENOSINE PHOSPHATE] the IC50 was 1.3 µM.
Oc1ccc(-c2csc(Nc3cccc(O)c3)n2)cc1 was tested, and the IC50 was 13 µM.
O=C(O)c1cccc(Nc2nc(-c3ccccc3)cs2)c1 gave an IC50 of 571 µM.
In the case of Oc1ccc(-c2csc(Nc3ccccc3)n2)cc1, the IC50 is reported as 318 µM.
For Nc1nc(-c2ccccc2)cs1, the IC50 was 1390 µM.
Oc1ccc(-c2csc(Nc3ccccc3O)n2)c(O)c1 showed an IC50 of 20 µM.
With Nc1nc(-c2ccc(O)cc2O)cs1 the IC50 was 93 µM.
O=[N+]([O-])c1cccc(Nc2nc(-c3ccc(O)cc3)cs2)c1 gave an IC50 of 48 µM.
Work on Oc1ccc(Nc2nc(-c3ccc(O)cc3O)cs2)cc1 yielded an IC50 of 11 µM.
Oc1ccc(-c2csc(Nc3ccccc3)n2)c(O)c1 gave an IC50 of 343 µM.
Work on O=[N+]([O-])c1ccc(Nc2nc(-c3ccc(O)cc3)cs2)cc1 yielded an IC50 of 246 µM.
Cc1cc(C)n(CC(O)COc2ccc3ccccc3c2)n1 (stereo not drawn) showed an IC50 of 3000 µM.
Work on Oc1ccccc1Nc1nc(-c2ccccc2)cs1 yielded an IC50 of 270 µM.
O=C(O)c1cccc(Nc2nc(-c3ccc(O)cc3)cs2)c1 was tested, and the IC50 was 48 µM.
Oc1ccc(Nc2nc(-c3ccccc3)cs2)cc1 gave an IC50 of 124 µM.
Nc1nc(-c2ccc(O)cc2)cs1 gave an IC50 of 1.1 µM.
NS(=O)(=O)c1ccc(Nc2nc(-c3ccc(O)cc3O)cs2)cc1 showed an IC50 of 55 µM.

What follows are molecules tested against T2, Fructose-1,6-bisphosphatase 1 (Sus scrofa) (UniProt P00636) (assay: Inhibition of pig FBPase expressed in Escherichia coli EK1601 at 100 uM by spectrophotometry). Conditions: not given.
T2 sequence (whole entry): T1 sequence (P00636 whole entry)
In the case of O=[N+]([O-])c1ccc(-c2csc(Nc3ccc(O)cc3)n2)cc1, the inhibition is reported as 87%.

Each molecule was assayed against T2, Fructose-1,6-bisphosphatase 1 (Sus scrofa) (assay: Inhibition of pig FBPase expressed in Escherichia coli EK1601 up to 300 uM by spectrophotometry). Conditions: not given.
In the case of O=[N+]([O-])c1cccc(Nc2nc(-c3ccccc3)cs2)c1, the inhibition is reported as “inactive”.
